Laboratory results taken from US6525001B1, “Substituted pyrimidine and pyridine herbicides” (Mid-American Commercialization Corporation, priority 1997, dated 2003).

Experiments:
Experiment in all cases: Test B pre-/postemergence
Assay type in all cases: in vivo
Design in all cases: key: 0 is no effect; 10 is complete control
[1] = test system: blackgrass (Alopecurus myosuroides)
In short: (§1)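 Compounds in a surfactant-containing, non-phytotoxic solvent blend are applied to freshly planted seed (preemergence) and, concurrently, to seedlings of 2 to 18 cm at 1–4 leaves (postemergence). Plants stay in the greenhouse twelve to sixteen days and are then scored visually from 0 (no effect) to 10 (complete control).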

[2] = test system: broadleaf signalgrass (Brachiaria decumbens)
In short: as §1

[3] = test system: cocklebur (Xanthium strumarium)
In short: as §1

[4] = test system: momingglory (Ipomoea hederacea)
In short: as §1

[5] = test system: pigweed (Amaranthus retroflexus)
In short: as §1

[6] = Preemergence, Rate 62 g/ha, scale of 0 to 10

## Cc1cnc(-c2ccc(C(F)(F)F)cc2)nc1C(=O)c1cccc(OC(F)(F)F)c1 [Compound 75]
[1]; [6]
  Plant response rating, Blackgrass: 3
[1]; Rate 62 g/ha, Postemergence
  Blackgrass plant response rating: 3
[1]; Rate 125 g/ha, Postemergence
  Blackgrass plant response rating: 6
[1]; Rate 125 g/ha, Preemergence
  Plant response rating, Blackgrass: 8
[1]; Rate 250 g/ha, Postemergence
  Plant response rating, Blackgrass: 8
[1]; Rate 250 g/ha, Preemergence
  Plant response rating, Blackgrass: 9
[1]; Rate 500 g/ha, Preemergence
  Plant response rating, Blackgrass: 10
[2]; Rate 62 g/ha, Postemergence
  B. signalgrass plant response rating: 2
[2]; Rate 62 g/ha, Preemergence
  B. signalgrass plant response rating: 8
[2]; Rate 125 g/ha, Postemergence
  B. signalgrass plant response rating: 2
[2]; Rate 125 g/ha, Preemergence
  Plant response rating, B. signalgrass: 9
[2]; Rate 250 g/ha, Postemergence
  Plant response rating, B. signalgrass: 3
[2]; Rate 250 g/ha, Preemergence
  Plant response rating, B. signalgrass: 9
[2]; Rate 500 g/ha, Preemergence
  Plant response rating, B. signalgrass: 9
[3]; [6]
  Plant response rating, Cocklebur: 0
[3]; Rate 62 g/ha, Postemergence
  Cocklebur plant response rating: 7
[3]; Rate 125 g/ha, Postemergence
  Cocklebur plant response rating: 7
[3]; Rate 125 g/ha, Preemergence
  Plant response rating, Cocklebur: 0
[3]; Rate 250 g/ha, Postemergence
  Plant response rating, Cocklebur: 7
[3]; Rate 250 g/ha, Preemergence
  Plant response rating, Cocklebur: 2
[3]; Rate 500 g/ha, Preemergence
  Plant response rating, Cocklebur: 9
[4]; [6]
  Plant response rating, Morningglory: 6
[4]; Rate 62 g/ha, Postemergence
  Morningglory plant response rating: 10
[4]; Rate 125 g/ha, Postemergence
  Morningglory plant response rating: 10
[4]; Rate 125 g/ha, Preemergence
  Plant response rating, Morningglory: 10
[4]; Rate 250 g/ha, Postemergence
  Plant response rating, Morningglory: 10
[4]; Rate 250 g/ha, Preemergence
  Plant response rating, Morningglory: 10
[4]; Rate 500 g/ha, Preemergence
  Plant response rating, Morningglory: 10
[5]; [6]
  Plant response rating, Redroot pigweed: 9
[5]; Rate 62 g/ha, Postemergence
  Redroot pigweed plant response rating: 9
[5]; Rate 125 g/ha, Postemergence
  Redroot pigweed plant response rating: 9
[5]; Rate 125 g/ha, Preemergence
  Plant response rating, Redroot pigweed: 10
[5]; Rate 250 g/ha, Postemergence
  Plant response rating, Redroot pigweed: 10
[5]; Rate 250 g/ha, Preemergence
  Plant response rating, Redroot pigweed: 10
[5]; Rate 500 g/ha, Preemergence
  Plant response rating, Redroot pigweed: 10

## CCc1cnc(-c2ccc(C(F)(F)F)cc2)nc1Cc1cccc(C(F)(F)F)c1 [Compound 22]
[1]; Rate 62 g/ha, Postemergence
  Plant response rating, Blackgrass: 5
[1]; Rate 62 g/ha, Preemergence
  Blackgrass plant response rating: 8
[1]; Rate 125 g/ha, Postemergence
  Plant response rating, Blackgrass: 8
[1]; Rate 125 g/ha, Preemergence
  Blackgrass plant response rating: 9
[1]; Rate 250 g/ha, Postemergence
  Plant response rating, Blackgrass: 9
[1]; Rate 250 g/ha, Preemergence
  Plant response rating, Blackgrass: 9
[2]; Rate 62 g/ha, Postemergence
  Plant response rating, B. signalgrass: 5
[2]; Rate 62 g/ha, Preemergence
  B. signalgrass plant response rating: 5
[2]; Rate 125 g/ha, Postemergence
  Plant response rating, B. signalgrass: 7
[2]; Rate 125 g/ha, Preemergence
  B. signalgrass plant response rating: 9
[2]; Rate 250 g/ha, Postemergence
  Plant response rating, B. signalgrass: 7
[2]; Rate 250 g/ha, Preemergence
  Plant response rating, B. signalgrass: 9
[3]; Rate 62 g/ha, Postemergence
  Plant response rating, Cocklebur: 8
[3]; Rate 62 g/ha, Preemergence
  Cocklebur plant response rating: 1
[3]; Rate 125 g/ha, Postemergence
  Plant response rating, Cocklebur: 8
[3]; Rate 125 g/ha, Preemergence
  Cocklebur plant response rating: 1
[3]; Rate 250 g/ha, Postemergence
  Plant response rating, Cocklebur: 8
[3]; Rate 250 g/ha, Preemergence
  Plant response rating, Cocklebur: 2
[4]; Rate 62 g/ha, Postemergence
  Plant response rating, Morningglory: 10
[4]; Rate 62 g/ha, Preemergence
  Morningglory plant response rating: 3
[4]; Rate 125 g/ha, Postemergence
  Plant response rating, Morningglory: 10
[4]; Rate 125 g/ha, Preemergence
  Morningglory plant response rating: 10
[4]; Rate 250 g/ha, Postemergence
  Plant response rating, Morningglory: 10
[4]; Rate 250 g/ha, Preemergence
  Plant response rating, Morningglory: 10
[5]; Rate 62 g/ha, Postemergence
  Plant response rating, Redroot pigweed: 10
[5]; Rate 62 g/ha, Preemergence
  Redroot pigweed plant response rating: 9
[5]; Rate 125 g/ha, Postemergence
  Plant response rating, Redroot pigweed: 10
[5]; Rate 125 g/ha, Preemergence
  Redroot pigweed plant response rating: 10
[5]; Rate 250 g/ha, Postemergence
  Plant response rating, Redroot pigweed: 10
[5]; Rate 250 g/ha, Preemergence
  Plant response rating, Redroot pigweed: 10

## Cc1cnc(-n2cnc(C(F)(F)F)c2)nc1C(=O)c1cccc(OC(F)(F)F)c1 [Compound 63]
[1]; [6]
  Plant response rating, Blackgrass: 2
[1]; Rate 62 g/ha, Postemergence
  Blackgrass plant response rating: 2
[1]; Rate 125 g/ha, Postemergence
  Blackgrass plant response rating: 3
[1]; Rate 125 g/ha, Preemergence
  Plant response rating, Blackgrass: 3
[1]; Rate 250 g/ha, Postemergence
  Plant response rating, Blackgrass: 3
[1]; Rate 250 g/ha, Preemergence
  Plant response rating, Blackgrass: 8
[1]; Rate 500 g/ha, Postemergence
  Plant response rating, Blackgrass: 6
[1]; Rate 500 g/ha, Preemergence
  Plant response rating, Blackgrass: 9
[2]; Rate 62 g/ha, Postemergence
  B. signalgrass plant response rating: 4
[2]; Rate 62 g/ha, Preemergence
  B. signalgrass plant response rating: 4
[2]; Rate 125 g/ha, Postemergence
  B. signalgrass plant response rating: 3
[2]; Rate 125 g/ha, Preemergence
  Plant response rating, B. signalgrass: 7
[2]; Rate 250 g/ha, Postemergence
  Plant response rating, B. signalgrass: 4
[2]; Rate 250 g/ha, Preemergence
  Plant response rating, B. signalgrass: 8
[2]; Rate 500 g/ha, Postemergence
  Plant response rating, B. signalgrass: 5
[2]; Rate 500 g/ha, Preemergence
  Plant response rating, B. signalgrass: 9
[3]; [6]
  Plant response rating, Cocklebur: 1
[3]; Rate 62 g/ha, Postemergence
  Cocklebur plant response rating: 1
[3]; Rate 125 g/ha, Postemergence
  Cocklebur plant response rating: 3
[3]; Rate 500 g/ha, Postemergence
  Plant response rating, Cocklebur: 8
[3]; Rate 500 g/ha, Preemergence
  Plant response rating, Cocklebur: 1
[4]; [6]
  Plant response rating, Morningglory: 2
[4]; Rate 62 g/ha, Postemergence
  Morningglory plant response rating: 2
[4]; Rate 125 g/ha, Postemergence
  Morningglory plant response rating: 4
[4]; Rate 125 g/ha, Preemergence
  Plant response rating, Morningglory: 7
[4]; Rate 250 g/ha, Postemergence
  Plant response rating, Morningglory: 10
[4]; Rate 250 g/ha, Preemergence
  Plant response rating, Morningglory: 10
[4]; Rate 500 g/ha, Postemergence
  Plant response rating, Morningglory: 10
[4]; Rate 500 g/ha, Preemergence
  Plant response rating, Morningglory: 10
[5]; [6]
  Plant response rating, Redroot pigweed: 8
[5]; Rate 62 g/ha, Postemergence
  Redroot pigweed plant response rating: 8
[5]; Rate 125 g/ha, Postemergence
  Redroot pigweed plant response rating: 9
[5]; Rate 125 g/ha, Preemergence
  Plant response rating, Redroot pigweed: 9
[5]; Rate 250 g/ha, Postemergence
  Plant response rating, Redroot pigweed: 9
[5]; Rate 250 g/ha, Preemergence
  Plant response rating, Redroot pigweed: 10
[5]; Rate 500 g/ha, Postemergence
  Plant response rating, Redroot pigweed: 9
[5]; Rate 500 g/ha, Preemergence
  Plant response rating, Redroot pigweed: 10
